# Experimental data reported in patent publication US8507508B2, “Solid forms of pemetrexed” (Dr. Reddy's Laboratories Limited, priority 2007, dated 2013).
# Test: Physical stability on storage, checked by retention of the original XRPD pattern
# Format: physicochemical
# Text: All XRPD data reported herein were obtained using a Bruker or PANalytical AXS D8 Advance Powder X-ray Diffractometer at Cu Kα radiation, having the wavelength 1.5418 Å. Since some margin of error is possible in the assignment of 2 theta angles and d-spacings, the preferred method of comparing X-ray powder diffraction patterns in order to identify a particular crystalline form is to overlay the X-ray powder diffraction pattern of the unknown form over the X-ray powder diffraction pattern of a known form. For all analytical data discussed in this application, it should be kept in mind that specific values depend on many factors, e.g., specific instrument, sample preparation and individual operator.
# The obtained sample kept in a sealed polythene bag at a temperature of 20° C. to 25° C. for a period of 58 days to check the physical stability.
# The obtained sample kept in a sealed polythene bag at a temperature of 20 to 25° C. for a period of 7 days to check the physical stability.
# The obtained sample kept in a sealed polythene bag at a temperature of 20 to 25° C. for a period of 3 days to check the physical stability.
# The sample was kept in a petri dish and stored at room temperature for a period of 24 hours to check the physical stability.
smiles,measurement,setting,value
"Nc1nc2[nH]cc(CCc3ccc(C(=O)N[C@@H](CCC(=O)[O-])C(=O)[O-])cc3)c2c(=O)[nH]1.[Na+].[Na+] [Example 1, Amorphous Pemetrexed Disodium]",physical stability (XRPD and physical observation),"sealed polythene bag, 20° C. to 25° C., 58 days",retain its amorphous nature
"Nc1nc2[nH]cc(CCc3ccc(C(=O)N[C@@H](CCC(=O)[O-])C(=O)[O-])cc3)c2c(=O)[nH]1.[Na+].[Na+] [Example 3, Amorphous Pemetrexed Disodium]",physical stability (XRPD),"sealed polythene bag, 20 to 25° C., 7 days",retain its amorphous form
"Nc1nc2[nH]cc(CCc3ccc(C(=O)N[C@@H](CCC(=O)[O-])C(=O)[O-])cc3)c2c(=O)[nH]1.[Na+].[Na+] [Example 4, Amorphous Pemetrexed Disodium]",physical stability (XRPD),"petri dish, room temperature, 24 hours",retain its polymorphic form
same,physical stability (XRPD),"sealed polythene bag, 20 to 25° C., 3 days",retain its polymorphic form
